Results as given in the supplement of paper PMC10307832.

Assays:
Assay in all cases: relative viability (nuclei count vs DMSO), 5 days (fraction); higher = more cells survive
A549 = system: A549
Summary of the method: (§1)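 Five library-drug doses in √10 steps were combined with a fixed anchor-drug dose, or a single drug was given alone, by pin tool to lung cancer cell lines in 1536-well plates the day after seeding. Nuclei were stained and counted after 5 days. Relative viability is the nuclei count in treated wells over that in vehicle wells, taken as the median of duplicate plates.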

Calu-6 = system: Calu-6
Summary of the method: as §1

EBC-1 = system: EBC-1
Summary of the method: as §1

HCC-78 = system: HCC-78
Summary of the method: as §1

IA-LM = system: IA-LM
Summary of the method: as §1

NCI-H1299 = system: NCI-H1299
Summary of the method: as §1

NCI-H1703 = system: NCI-H1703
Summary of the method: as §1

NCI-H2009 = system: NCI-H2009
Summary of the method: as §1

NCI-H460 = system: NCI-H460
Summary of the method: as §1

NCI-H661 = system: NCI-H661
Summary of the method: as §1

SMILES: CCN(CC)CCCCNc1ncc2cc(-c3cc(OC)cc(OC)c3)c(NC(=O)NC(C)(C)C)nc2n1 + C[C@]1(O)C[C@@H](c2nc(-c3ccc4ccc(-c5ccccc5)nc4c3)c3c(N)nccn32)C1 [Linsitinib] (partner 1 µM)
- relative viability (A549; first compound 0.01 µM): 0.623
- relative viability (A549; first compound 0.03162 µM): 0.626
- relative viability (A549; first compound 0.1 µM): 0.563
- relative viability (A549; first compound 0.3162 µM): 0.636
- relative viability (A549; first compound 1 µM): 0.595
- relative viability (Calu-6; first compound 0.03162 µM): 0.946
- relative viability (Calu-6; first compound 0.1 µM): 0.969
- relative viability (Calu-6; first compound 0.3162 µM): 0.898
- relative viability (Calu-6; first compound 1 µM): 1.02
- relative viability (EBC-1; first compound 0.01 µM): 0.885
- relative viability (EBC-1; first compound 0.03162 µM): 1.04
- relative viability (EBC-1; first compound 0.1 µM): 0.994
- relative viability (EBC-1; first compound 0.3162 µM): 1.06
- relative viability (EBC-1; first compound 1 µM): 0.879
- relative viability (HCC-78; first compound 0.03162 µM): 0.55
- relative viability (HCC-78; first compound 0.1 µM): 0.497
- relative viability (HCC-78; first compound 0.3162 µM): 0.593
- relative viability (HCC-78; first compound 1 µM): 0.415
- relative viability (IA-LM; first compound 0.01 µM): 0.757
- relative viability (IA-LM; first compound 0.03162 µM): 0.748
- relative viability (IA-LM; first compound 0.1 µM): 0.621
- relative viability (IA-LM; first compound 0.3162 µM): 0.78
- relative viability (IA-LM; first compound 1 µM): 0.506
- relative viability (NCI-H1299; first compound 0.01 µM): 1.01
- relative viability (NCI-H1299; first compound 0.03162 µM): 1.01
- relative viability (NCI-H1299; first compound 0.1 µM): 0.986
- relative viability (NCI-H1299; first compound 0.3162 µM): 1.09
- relative viability (NCI-H1299; first compound 1 µM): 0.944
- relative viability (NCI-H1703; first compound 0.01 µM): 1.02
- relative viability (NCI-H1703; first compound 0.03162 µM): 0.63
- relative viability (NCI-H1703; first compound 0.1 µM): 0.792
- relative viability (NCI-H1703; first compound 0.3162 µM): 0.959
- relative viability (NCI-H1703; first compound 1 µM): 0.967
- relative viability (NCI-H2009; first compound 0.01 µM): 1.29
- relative viability (NCI-H2009; first compound 0.03162 µM): 1.19
- relative viability (NCI-H2009; first compound 0.1 µM): 1.23
- relative viability (NCI-H2009; first compound 0.3162 µM): 1.26
- relative viability (NCI-H2009; first compound 1 µM): 1.21
- relative viability (NCI-H460; first compound 0.01 µM): 1.05
- relative viability (NCI-H460; first compound 0.03162 µM): 0.985
- relative viability (NCI-H460; first compound 0.1 µM): 0.868
- relative viability (NCI-H460; first compound 0.3162 µM): 1.58
- relative viability (NCI-H460; first compound 1 µM): 0.293
- relative viability (NCI-H661; first compound 0.01 µM): 0.568
- relative viability (NCI-H661; first compound 0.03162 µM): 0.45
- relative viability (NCI-H661; first compound 0.1 µM): 0.58
- relative viability (NCI-H661; first compound 0.3162 µM): 0.61
- relative viability (NCI-H661; first compound 1 µM): 0.535

SMILES: COc1nc(C)cnc1NS(=O)(=O)c1cccnc1-c1ccc(-c2nnco2)cc1 [Zibotentan] + CC1(C)CCC(c2ccc(Cl)cc2)=C(CN2CCN(c3ccc(C(=O)NS(=O)(=O)c4ccc(N[C@H](CCN5CCOCC5)CSc5ccccc5)c(S(=O)(=O)C(F)(F)F)c4)cc3)CC2)C1 [Navitoclax] (partner 0.5 µM)
- relative viability (A549; first compound 0.08 µM): 1.45
- relative viability (A549; first compound 0.253 µM): 1.18
- relative viability (A549; first compound 0.8 µM): 1.26
- relative viability (A549; first compound 2.53 µM): 1.2
- relative viability (Calu-6; first compound 0.08 µM): 0.832
- relative viability (Calu-6; first compound 0.253 µM): 0.79
- relative viability (Calu-6; first compound 0.8 µM): 0.888
- relative viability (Calu-6; first compound 2.53 µM): 0.894
- relative viability (EBC-1; first compound 0.08 µM): 0.487
- relative viability (EBC-1; first compound 0.253 µM): 0.499
- relative viability (EBC-1; first compound 0.8 µM): 0.477
- relative viability (EBC-1; first compound 2.53 µM): 0.38
- relative viability (HCC-78; first compound 0.08 µM): 0.859
- relative viability (HCC-78; first compound 0.253 µM): 0.687
- relative viability (HCC-78; first compound 0.8 µM): 0.664
- relative viability (HCC-78; first compound 2.53 µM): 0.764
- relative viability (IA-LM; first compound 0.08 µM): 0.764
- relative viability (IA-LM; first compound 0.253 µM): 0.688
- relative viability (IA-LM; first compound 0.8 µM): 0.682
- relative viability (IA-LM; first compound 2.53 µM): 0.699
- relative viability (NCI-H1299; first compound 0.08 µM): 1.05
- relative viability (NCI-H1299; first compound 0.253 µM): 0.998
- relative viability (NCI-H1299; first compound 0.8 µM): 1.05
- relative viability (NCI-H1299; first compound 2.53 µM): 1.05
- relative viability (NCI-H1703; first compound 0.08 µM): 1.15
- relative viability (NCI-H1703; first compound 0.253 µM): 1.08
- relative viability (NCI-H1703; first compound 0.8 µM): 1.25
- relative viability (NCI-H1703; first compound 2.53 µM): 1.03
- relative viability (NCI-H2009; first compound 0.08 µM): 1.17
- relative viability (NCI-H2009; first compound 0.253 µM): 1.08
- relative viability (NCI-H2009; first compound 0.8 µM): 1.2
- relative viability (NCI-H2009; first compound 2.53 µM): 1.25
- relative viability (NCI-H460; first compound 0.08 µM): 1.41
- relative viability (NCI-H460; first compound 0.8 µM): 1.14
- relative viability (NCI-H460; first compound 2.53 µM): 1.23

SMILES: O=c1cc(N2CCOCC2)oc2c(-c3cccc4c3sc3ccccc34)cccc12 + CC(C)C[C@H](NC(=O)[C@H](Cc1ccccc1)NC(=O)c1cnccn1)B(O)O [Bortezomib] (partner 0.002 µM)
- relative viability (Calu-6; first compound 0.01 µM): 1.04
- relative viability (Calu-6; first compound 0.03162 µM): 1.05
- relative viability (Calu-6; first compound 0.1 µM): 1.01
- relative viability (Calu-6; first compound 0.3162 µM): 0.969
- relative viability (Calu-6; first compound 1 µM): 1.03
- relative viability (EBC-1; first compound 0.01 µM): 0.569
- relative viability (EBC-1; first compound 0.03162 µM): 0.538
- relative viability (EBC-1; first compound 0.1 µM): 0.505
- relative viability (EBC-1; first compound 0.3162 µM): 0.555
- relative viability (EBC-1; first compound 1 µM): 0.49
- relative viability (HCC-78; first compound 0.01 µM): 0.544
- relative viability (HCC-78; first compound 0.03162 µM): 0.467
- relative viability (HCC-78; first compound 0.1 µM): 0.566
- relative viability (HCC-78; first compound 0.3162 µM): 0.482
- relative viability (HCC-78; first compound 1 µM): 0.468
- relative viability (IA-LM; first compound 0.01 µM): 0.837
- relative viability (IA-LM; first compound 0.03162 µM): 0.904
- relative viability (IA-LM; first compound 0.1 µM): 0.784
- relative viability (IA-LM; first compound 0.3162 µM): 0.896
- relative viability (IA-LM; first compound 1 µM): 0.74
- relative viability (NCI-H1299; first compound 0.01 µM): 1.04
- relative viability (NCI-H1299; first compound 0.03162 µM): 1.01
- relative viability (NCI-H1299; first compound 0.1 µM): 0.984
- relative viability (NCI-H1299; first compound 0.3162 µM): 1.03
- relative viability (NCI-H1299; first compound 1 µM): 1.08
- relative viability (NCI-H1703; first compound 0.01 µM): 0.333
- relative viability (NCI-H1703; first compound 0.03162 µM): 0.274
- relative viability (NCI-H1703; first compound 0.1 µM): 0.356
- relative viability (NCI-H1703; first compound 0.3162 µM): 0.403
- relative viability (NCI-H1703; first compound 1 µM): 0.296
- relative viability (NCI-H2009; first compound 0.01 µM): 1.03
- relative viability (NCI-H2009; first compound 0.03162 µM): 1.01
- relative viability (NCI-H2009; first compound 0.1 µM): 0.89
- relative viability (NCI-H2009; first compound 0.3162 µM): 0.967
- relative viability (NCI-H2009; first compound 1 µM): 1.01
- relative viability (NCI-H460; first compound 0.01 µM): 1.01
- relative viability (NCI-H460; first compound 0.03162 µM): 1.13
- relative viability (NCI-H460; first compound 0.1 µM): 1.3
- relative viability (NCI-H460; first compound 0.3162 µM): 1.06
- relative viability (NCI-H460; first compound 1 µM): 1.07
- relative viability (NCI-H661; first compound 0.01 µM): 0.681
- relative viability (NCI-H661; first compound 0.03162 µM): 0.89
- relative viability (NCI-H661; first compound 0.1 µM): 0.752
- relative viability (NCI-H661; first compound 0.3162 µM): 0.714
- relative viability (NCI-H661; first compound 1 µM): 0.756
